Experimental data taken from patent publication US20240018161A1, “MODULATORS OF CYSTIC FIBROSIS TRANSMEMBRANE CONDUCTANCE REGULATOR” (VERTEX PHARMACEUTICALS INCORPORATED, priority 2020, published 2024).
Where two headings read alike, the source gives them in different places.

Biological target: CFTR-mediated chloride transport in human intestinal epithelial enteroid cells (Homo sapiens, UniProt P13569)
Test: Membrane potential dye, Enteroid Assay A
Type: cell-based
Conditions: for EC50: read-out: Ent. A EC50
Summary of the method: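 Membrane potential dye (20 μM methyl oxonol, with 30 μM CaCCinh-A01 and 30 μM Chicago Sky Blue) loaded 25 min at room temperature into ROCK-inhibitor-seeded human enteroid cells. Chloride-free stimulation buffer triggered transport, followed by 15 min fluorescence. % Activity relative to 3 μM/3 μM/300 nM triple-combination control.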

[1] = enteroid cells incubated with test compound 18-24 hours, acute 10 μM forskolin and 300 nM N-[2,4-bis(1,1-dimethylethyl)-5-hydroxyphenyl]-1,4-dihydro-4-oxoquinoline-3-carboxamide
[2] = percentage of chloride transport of triple combination control (3 μM N-[(6-amino-2-pyridyl)sulfonyl]-6-(3-fluoro-5-isobutoxy-phenyl)-2-[(4S)-2,2,4-trimethylpyrrolidin-1-yl]pyridine-3-carboxamide based)

Chain of CFTR-mediated chloride transport in human intestinal epithelial enteroid cells (P13569 with tags, fused parts or gaps DEL508-508): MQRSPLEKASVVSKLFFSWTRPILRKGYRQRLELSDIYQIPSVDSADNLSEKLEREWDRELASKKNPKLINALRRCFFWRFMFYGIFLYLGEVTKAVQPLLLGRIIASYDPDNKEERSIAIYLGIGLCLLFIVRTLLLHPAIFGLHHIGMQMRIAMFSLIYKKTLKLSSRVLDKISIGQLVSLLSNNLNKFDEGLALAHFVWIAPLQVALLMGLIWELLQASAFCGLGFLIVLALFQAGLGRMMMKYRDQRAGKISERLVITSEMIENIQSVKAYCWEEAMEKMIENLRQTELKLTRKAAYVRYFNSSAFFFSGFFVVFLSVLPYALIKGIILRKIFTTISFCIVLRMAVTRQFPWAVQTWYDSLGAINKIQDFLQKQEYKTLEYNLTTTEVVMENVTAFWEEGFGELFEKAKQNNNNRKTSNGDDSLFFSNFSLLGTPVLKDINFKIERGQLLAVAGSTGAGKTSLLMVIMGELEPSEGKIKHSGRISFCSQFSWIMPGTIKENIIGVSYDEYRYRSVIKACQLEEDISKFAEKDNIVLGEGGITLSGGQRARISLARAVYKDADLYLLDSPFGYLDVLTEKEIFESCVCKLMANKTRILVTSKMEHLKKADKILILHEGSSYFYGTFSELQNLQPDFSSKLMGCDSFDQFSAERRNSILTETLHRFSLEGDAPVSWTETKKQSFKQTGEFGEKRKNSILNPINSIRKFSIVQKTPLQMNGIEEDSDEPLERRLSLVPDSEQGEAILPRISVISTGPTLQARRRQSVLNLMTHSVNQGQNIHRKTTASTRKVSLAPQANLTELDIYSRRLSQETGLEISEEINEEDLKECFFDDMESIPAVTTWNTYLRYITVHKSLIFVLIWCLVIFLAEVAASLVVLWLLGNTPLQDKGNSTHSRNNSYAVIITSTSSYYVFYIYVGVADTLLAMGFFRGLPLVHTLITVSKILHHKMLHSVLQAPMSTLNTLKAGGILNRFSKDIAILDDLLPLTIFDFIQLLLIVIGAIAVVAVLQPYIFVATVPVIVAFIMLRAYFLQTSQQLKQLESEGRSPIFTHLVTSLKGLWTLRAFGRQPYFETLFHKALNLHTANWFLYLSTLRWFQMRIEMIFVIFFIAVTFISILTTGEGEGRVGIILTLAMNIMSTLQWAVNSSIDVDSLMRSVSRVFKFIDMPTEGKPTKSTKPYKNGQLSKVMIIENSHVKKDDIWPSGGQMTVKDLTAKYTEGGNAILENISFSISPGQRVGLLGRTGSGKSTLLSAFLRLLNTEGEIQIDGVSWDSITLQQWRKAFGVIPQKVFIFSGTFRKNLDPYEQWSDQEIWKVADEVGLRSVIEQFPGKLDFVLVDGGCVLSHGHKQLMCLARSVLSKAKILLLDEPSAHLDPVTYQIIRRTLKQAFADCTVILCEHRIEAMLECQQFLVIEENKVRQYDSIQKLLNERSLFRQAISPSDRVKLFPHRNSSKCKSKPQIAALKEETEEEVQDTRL

| EC50 [1] | Ent. A Max Activity (%) (Enteroid Assay A) | EC50 (Enteroid Assay A) | SMILES | Ent. A Max Activity (%) [2] |
| --- | --- | --- | --- | --- |
| 1000 to 3000 nM | – | – | Cc1cccc(C)c1-c1cc2nc(n1)NS(=O)(=O)c1cccc(c1)C(=O)N1CCN(Cc3ccccn3)CC(C1)O2 (centres unmarked) [Compound 64, 12-(2,6-Dimethylphenyl)-18-[(pyridin-2-yl)methyl]-15-oxa-8λ^6-thia-1,9,11,18,22-pentaazatetracyclo[14.4.1.13,7.110,14]tricosa-3(23),4,6,10(22),11,13-hexaene-2,8,8-trione] | ++ (++ is 30-60%) |
| < 1000 nM | – | – | Cc1cccc(C)c1-c1cc2nc(n1)NS(=O)(=O)c1cccc(c1)C(=O)N1CCN(CCCC(C)(C)C)CC(C1)O2 (centres unmarked) [Compound 65, 18-(4,4-Dimethylpentyl)-12-(2,6-dimethylphenyl)-15-oxa-8λ^6-thia-1,9,11,18,22-pentaazatetracyclo[14.4.1.13,7.110,14]tricosa-3(23),4,6,10(22),11,13-hexaene-2,8,8-trione] | ++ (++ is 30-60%) |
| 3000 to 30000 nM | – | – | Cc1cccc(C)c1-c1cc2nc(n1)NS(=O)(=O)c1cccc(c1)C(=O)N1CCN(Cc3cccnc3)C[C@H](C1)O2 [Compound 66, (36R)-16-(2,6-dimethylphenyl)-34-(pyridin-3-ylmethyl)-2-oxa-6-thia-7-aza-3(6,1)-diazepana-1(4,2)-pyrimidina-5(1,3)-benzenacycloheptaphan-4-one 6,6-dioxide] | ++ (++ is 30-60%) |
| < 1000 nM | – | – | Cc1cccc(C)c1-c1cc2nc(n1)NS(=O)(=O)c1cccc(c1)C(=O)N1CCN(Cc3ccccc3)C[C@H](C1)O2 [Compound 67, (16R)-18-Benzyl-12-(2,6-dimethylphenyl)-15-oxa-8λ^6-thia-1,9,11,18,22-pentaazatetracyclo[14.4.1.13,7.110,14]tricosa-3(23),4,6,10(22),11,13-hexaene-2,8,8-trione] | +++ (+++ is >60%) |
| 1000 to 3000 nM | – | – | Cc1cccc(C)c1-c1cc2nc(n1)NS(=O)(=O)c1cccc(c1)C(=O)N1CCN(Cc3ccccc3)C[C@@H](C1)O2 [Compound 68, (16S)-18-benzyl-12-(2,6-dimethylphenyl)-15-oxa-8λ^6-thia-1,9,11,18,22-pentaazatetracyclo[14.4.1.13,7.110,14]tricosa-3(23),4,6,10,12,14(22)-hexaene-2,8,8-trione] | + (+ is <300%) |
| – | +++ (+++ is >600%) | 1000 to 3000 nM | CCN1CCN2C[C@@H](C1)Oc1cc(-c3c(C)cccc3C)nc(n1)NS(=O)(=O)c1cccc(c1)C2=O [Compound 74, (16R)-12-(2,6-Dimethylphenyl)-18-ethyl-15-oxa-8λ^6-thia-1,9,11,18,22-pentaazatetracyclo[14.4.1.13,7.110,14]tricosa-3(23),4,6,10,12,14(22)-hexaene-2,8,8-trione] | – |
| – | +++ (+++ is >600%) | < 1000 nM | Cc1cccc(C)c1-c1cc2nc(n1)NS(=O)(=O)c1cccc(c1)C(=O)N1CCN(C(C)C)C[C@H](C1)O2 [Compound 75, (16R)-12-(2,6-Dimethylphenyl)-18-(propan-2-yl)-15-oxa-8λ^6-thia-1,9,11,18,22-pentaazatetracyclo[14.4.1.13,7.110,14]tricosa-3,5,7(23),10,12,14(22)-hexaene-2,8,8-trione] | – |
| – | + (+ is <30%) | – | Cc1cccc(C)c1-c1cc2nc(n1)NS(=O)(=O)c1cccc(c1)CN1CC(CNCC1=O)O2 (centres unmarked) [Compound 76, 12-(2,6-Dimethylphenyl)-15-oxa-8λ^6-thia-1,9,11,18,22-pentaazatetracyclo[14.4.1.13,7.110,14]tricosa-3(23),4,6,10,12,14(22)-hexaene-8,8,20-trione] | – |
| – | ++ (++ is 30-60%) | < 1000 nM | Cc1cccc(C)c1-c1cc2nc(n1)NS(=O)(=O)c1cccc(c1)CN1CC(CN(C3CCC(F)(F)CC3)CC1=O)O2 (centres unmarked) [Compound 78, 18-(4,4-Difluorocyclohexyl)-12-(2,6-dimethylphenyl)-15-oxa-8λ^6-thia-1,9,11,18,22-pentaazatetracyclo[14.4.1.13,7.110,14]tricosa-3(23),4,6,10,12,14(22)-hexaene-8,8,20-trione] | – |
| – | +++ (+++ is >600%) | < 1000 nM | Cc1cccc(C)c1-c1cc2nc(n1)NS(=O)(=O)c1cccc(c1)C(=O)N1CCN(C(=O)CC34CC5CC(CC(C5)C3)C4)C[C@H](C1)O2 [Compound 79, (16R)-18-[2-(Adamantan-1-yl)acetyl]-12-(2,6-dimethylphenyl)-15-oxa-8λ^6-thia-1,9,11,18,22-pentaazatetracyclo[14.4.1.13,7.110,14]tricosa-3(23),4,6,10,12,14(22)-hexaene-2,8,8-trione] | – |
| – | +++ (+++ is >600%) | 1000 to 3000 nM | Cc1cccc(C)c1-c1cc2nc(n1)NS(=O)(=O)c1cccc(c1)C(=O)N1CCN(C(=O)CC(C)(C)C)C[C@H](C1)O2 [Compound 81, (16R)-18-(3,3-Dimethylbutanoyl)-12-(2,6-dimethylphenyl)-15-oxa-8λ^6-thia-1,9,11,18,22-pentaazatetracyclo[14.4.1.13,7.110,14]tricosa-3(23),4,6,10,12,14(22)-hexaene-2,8,8-trione] | – |
| – | +++ (+++ is >600%) | 1000 to 3000 nM | Cc1cccc(C)c1-c1cc2nc(n1)NS(=O)(=O)c1cccc(c1)C(=O)N1CCN(Cc3ccccc3)CC(C)(C1)O2 (centres unmarked) [Compound 82, 18-Benzyl-12-(2,6-dimethylphenyl)-16-methyl-15-oxa-8λ^6-thia-1,9,11,18,22-pentaazatetracyclo[14.4.1.13,7.110,14]tricosa-3(23),4,6,10,12,14(22)-hexaene-2,8,8-trione] | – |
| – | ++ (++ is 30-60%) | < 1000 nM | Cc1cccc(C)c1-c1cc2nc(n1)NS(=O)(=O)c1cccc(c1)C(=O)N1C[C@@H](CNC[C@@H]1CC(C)C)O2 [Compound 95, (16R,20S)-12-(2,6-Dimethylphenyl)-20-(2-methylpropyl)-15-oxa-8λ^6-thia-1,9,11,18,22-pentaazatetracyclo[14.4.1.13,7.110,14]tricosa-3(23),4,6,10(22),11,13-hexaene-2,8,8-trione] | – |
| – | ++ (++ is 30-60%) | < 1000 nM | Cc1cccc(C)c1-c1cc2nc(n1)NS(=O)(=O)c1cccc(c1)C(=O)N1C[C@@H](CN(C3CC4(CCCC4)C3)C[C@@H]1CC(C)C)O2 [Compound 97, (16R,20S)-12-(2,6-Dimethylphenyl)-20-(2-methylpropyl)-18-{spiro[3.4]octan-2-yl}-15-oxa-8λ^6-thia-1,9,11,18,22-pentaazatetracyclo[14.4.1.13,7.110,14]tricosa-3(23),4,6,10(22),11,13-hexaene-2,8,8-trione] | – |
| – | + (+ is <30%) | – | Cc1cccc(C)c1-c1cc2nc(n1)NS(=O)(=O)c1cccc(c1)C(=O)N1C[C@@H](CN(CC(F)(F)F)C[C@@H]1CC(C)C)O2 [Compound 98, (16R,20S)-12-(2,6-Dimethylphenyl)-20-(2-methylpropyl)-18-(2,2,2-trifluoroethyl)-15-oxa-8λ^6-thia-1,9,11,18,22-pentaazatetracyclo[14.4.1.13,7.110,14]tricosa-3(23),4,6,10(22),11,13-hexaene-2,8,8-trione] | – |
| – | ++ (++ is 30-60%) | < 1000 nM | Cc1cccc(C)c1-c1cc2nc(n1)NS(=O)(=O)c1cccc(c1)C(=O)N1C[C@@H](CN(C)C[C@@H]1CC(C)C)O2 [Compound 99, (16R,20S)-12-(2,6-Dimethylphenyl)-18-methyl-20-(2-methylpropyl)-15-oxa-8λ^6-thia-1,9,11,18,22-pentaazatetracyclo[14.4.1.13,7.110,14]tricosa-3(23),4,6,10(22),11,13-hexaene-2,8,8-trione] | – |
| – | ++ (++ is 30-60%) | < 1000 nM | Cc1cccc(C)c1-c1cc2nc(n1)NS(=O)(=O)c1cccc(c1)C(=O)N1C[C@@H](CNC[C@H]1CC(C)C)O2 [Compound 101, (16R,20R)-12-(2,6-Dimethylphenyl)-20-(2-methylpropyl)-15-oxa-8λ^6-thia-1,9,11,18,22-pentaazatetracyclo[14.4.1.13,7.110,14]tricosa-3(23),4,6,10,12,14(22)-hexaene-2,8,8-trione] | – |

| SMILES | EC50 [1] | Ent. A Max Activity (%) (Enteroid Assay A) | EC50 (Enteroid Assay A) | Ent. A Max Activity (%) [2] |
| --- | --- | --- | --- | --- |
| Cc1cccc(C)c1-c1cc2nc(n1)NS(=O)(=O)c1cccc(c1)C(=O)N1CCN(C(=O)C(C)(C)C)C[C@H](C1)O2 [Compound 80, (16R)-12-(2,6-Dimethylphenyl)-18-(2,2-dimethylpropanoyl)-15-oxa-8λ^6-thia-1,9,11,18,22-pentaazatetracyclo[14.4.1.13,7.110,14]tricosa-3(23),4,6,10,12,14(22)-hexaene-2,8,8-trione] | – | +++ (+++ is >600%) | 3000 to 30000 nM | – |
| Cc1cccc(C)c1-c1cc2nc(n1)NS(=O)(=O)c1cccc(c1)C(=O)N1CCN(C3CC4(CCCC4)C3)C[C@@H](O2)[C@H]1CC(C)C [Compound 83, (16R,21R)-12-(2,6-Dimethylphenyl)-21-(2-methylpropyl)-18-{spiro[3.4]octan-2-yl}-15-oxa-8λ^6-thia-1,9,11,18,22-pentaazatetracyclo[14.4.1.13,7.110,14]tricosa-3(23),4,6,10(22),11,13-hexaene-2,8,8-trione] | – | +++ (+++ is >600%) | < 1000 nM | – |
| Cc1cccc(C)c1-c1cc2nc(n1)NS(=O)(=O)c1cccc(c1)C(=O)N1CCNCC(O2)C1CC(C)C (centres unmarked) [Compound 93, 12-(2,6-Dimethylphenyl)-21-(2-methylpropyl)-15-oxa-8λ^6-thia-1,9,11,18,22-pentaazatetracyclo[14.4.1.13,7.110,14]tricosa-3(23),4,6,10(22),11,13-hexaene-2,8,8-trione] | – | +++ (+++ is >600%) | 1000 to 3000 nM | – |
